Assay results taken from ChEMBL document CHEMBL4627246, “Pyroglutamide-Based P2X7 Receptor Antagonists Targeting Inflammatory Bowel Disease” (J Med Chem, 2020).

test system: SW-620; assay: Cytotoxicity against human SW620 cells assessed as effect on cell growth at 10 uM incubated for 48 hrs by sulforhodamine B assay; assay type: cell-based; details: sw-620, 48 h

| Structure (SMILES) | Activity |
| --- | --- |
| COC(=O)[C@@H]1C/C(=C\NCc2ccc(Cl)cc2Cl)C(=O)N1C(=O)OC | Non-Toxic |
| CCCCCCN1C(=O)[C@@H]2CCC(=O)N2C1N(C)C (stereo not given in full) | Non-Toxic |
| O=C(NCc1ccc(Cl)cc1Cl)[C@@H]1CCC(=O)N1C(c1ccccc1)c1ccccc1 | Non-Toxic |
| O=C1CCCC(C(=O)NCc2ccc(Cl)cc2Cl)N1 (stereo not given) | Non-Toxic |

test system: DU-145; assay: Cytotoxicity against human DU145 cells assessed as effect on cell growth at 10 uM incubated for 48 hrs by sulforhodamine B assay; assay type: cell-based; details: du-145, 48 h

| Structure (SMILES) | Activity |
| --- | --- |
| COC(=O)[C@@H]1C/C(=C\NCc2ccc(Cl)cc2Cl)C(=O)N1C(=O)OC | Non-Toxic |
| CCCCCCN1C(=O)[C@@H]2CCC(=O)N2C1N(C)C (stereo not given in full) | Non-Toxic |
| O=C(NCc1ccc(Cl)cc1Cl)[C@@H]1CCC(=O)N1C(c1ccccc1)c1ccccc1 | Non-Toxic |
| O=C1CCCC(C(=O)NCc2ccc(Cl)cc2Cl)N1 (stereo not given) | Non-Toxic |

test system: A549; assay: Cytotoxicity against human A549/ATCC cells assessed as effect on cell growth at 10 uM incubated for 48 hrs by sulforhodamine B assay; assay type: cell-based; details: a549, 48 h

| Structure (SMILES) | Activity |
| --- | --- |
| COC(=O)[C@@H]1C/C(=C\NCc2ccc(Cl)cc2Cl)C(=O)N1C(=O)OC | Non-Toxic |
| CCCCCCN1C(=O)[C@@H]2CCC(=O)N2C1N(C)C (stereo not given in full) | Non-Toxic |
| O=C(NCc1ccc(Cl)cc1Cl)[C@@H]1CCC(=O)N1C(c1ccccc1)c1ccccc1 | Non-Toxic |
| O=C1CCCC(C(=O)NCc2ccc(Cl)cc2Cl)N1 (stereo not given) | Non-Toxic |

test system: 786-0; assay: Cytotoxicity against human 786-0 cells assessed as effect on cell growth at 10 uM incubated for 48 hrs by sulforhodamine B assay; assay type: cell-based; details: 786-0, 48 h

| Structure (SMILES) | Activity |
| --- | --- |
| COC(=O)[C@@H]1C/C(=C\NCc2ccc(Cl)cc2Cl)C(=O)N1C(=O)OC | Non-Toxic |
| CCCCCCN1C(=O)[C@@H]2CCC(=O)N2C1N(C)C (stereo not given in full) | Non-Toxic |
| O=C(NCc1ccc(Cl)cc1Cl)[C@@H]1CCC(=O)N1C(c1ccccc1)c1ccccc1 | Non-Toxic |
| O=C1CCCC(C(=O)NCc2ccc(Cl)cc2Cl)N1 (stereo not given) | Non-Toxic |

test system: EKVX; assay: Cytotoxicity against human EKVX cells assessed as effect on cell growth at 10 uM incubated for 48 hrs by sulforhodamine B assay; assay type: cell-based; details: not given

| Structure (SMILES) | Activity |
| --- | --- |
| COC(=O)[C@@H]1C/C(=C\NCc2ccc(Cl)cc2Cl)C(=O)N1C(=O)OC | Non-Toxic |
| CCCCCCN1C(=O)[C@@H]2CCC(=O)N2C1N(C)C (stereo not given in full) | Non-Toxic |
| O=C(NCc1ccc(Cl)cc1Cl)[C@@H]1CCC(=O)N1C(c1ccccc1)c1ccccc1 | Non-Toxic |
| O=C1CCCC(C(=O)NCc2ccc(Cl)cc2Cl)N1 (stereo not given) | Non-Toxic |

test system: SR; assay: Cytotoxicity against human SR cells assessed as effect on cell growth at 10 uM incubated for 48 hrs by sulforhodamine B assay; assay type: cell-based; details: not given

| Structure (SMILES) | Activity |
| --- | --- |
| COC(=O)[C@@H]1C/C(=C\NCc2ccc(Cl)cc2Cl)C(=O)N1C(=O)OC | Non-Toxic |
| CCCCCCN1C(=O)[C@@H]2CCC(=O)N2C1N(C)C (stereo not given in full) | Non-Toxic |
| O=C(NCc1ccc(Cl)cc1Cl)[C@@H]1CCC(=O)N1C(c1ccccc1)c1ccccc1 | Non-Toxic |
| O=C1CCCC(C(=O)NCc2ccc(Cl)cc2Cl)N1 (stereo not given) | Non-Toxic |

test system: OVCAR-5; assay: Cytotoxicity against human OVCAR5 cells assessed as effect on cell growth at 10 uM incubated for 48 hrs by sulforhodamine B assay; assay type: cell-based; details: ovcar-5, 48 h

| Structure (SMILES) | Activity |
| --- | --- |
| COC(=O)[C@@H]1C/C(=C\NCc2ccc(Cl)cc2Cl)C(=O)N1C(=O)OC | Non-Toxic |
| CCCCCCN1C(=O)[C@@H]2CCC(=O)N2C1N(C)C (stereo not given in full) | Non-Toxic |
| O=C(NCc1ccc(Cl)cc1Cl)[C@@H]1CCC(=O)N1C(c1ccccc1)c1ccccc1 | Non-Toxic |
| O=C1CCCC(C(=O)NCc2ccc(Cl)cc2Cl)N1 (stereo not given) | Non-Toxic |

test system: UO-31; assay: Cytotoxicity against human UO31 cells assessed as effect on cell growth at 10 uM incubated for 48 hrs by sulforhodamine B assay; assay type: cell-based; details: uo-31, 48 h

| Structure (SMILES) | Activity |
| --- | --- |
| COC(=O)[C@@H]1C/C(=C\NCc2ccc(Cl)cc2Cl)C(=O)N1C(=O)OC | Non-Toxic |
| CCCCCCN1C(=O)[C@@H]2CCC(=O)N2C1N(C)C (stereo not given in full) | Non-Toxic |
| O=C(NCc1ccc(Cl)cc1Cl)[C@@H]1CCC(=O)N1C(c1ccccc1)c1ccccc1 | Non-Toxic |
| O=C1CCCC(C(=O)NCc2ccc(Cl)cc2Cl)N1 (stereo not given) | Non-Toxic |

test system: ACHN; assay: Cytotoxicity against human ACHN cells assessed as effect on cell growth at 10 uM incubated for 48 hrs by sulforhodamine B assay; assay type: cell-based; details: not given

| Structure (SMILES) | Activity |
| --- | --- |
| COC(=O)[C@@H]1C/C(=C\NCc2ccc(Cl)cc2Cl)C(=O)N1C(=O)OC | Non-Toxic |
| CCCCCCN1C(=O)[C@@H]2CCC(=O)N2C1N(C)C (stereo not given in full) | Non-Toxic |
| O=C(NCc1ccc(Cl)cc1Cl)[C@@H]1CCC(=O)N1C(c1ccccc1)c1ccccc1 | Non-Toxic |
| O=C1CCCC(C(=O)NCc2ccc(Cl)cc2Cl)N1 (stereo not given) | Non-Toxic |

test system: SK-OV-3; assay: Cytotoxicity against human SKOV3 cells assessed as effect on cell growth at 10 uM incubated for 48 hrs by sulforhodamine B assay; assay type: cell-based; details: sk-ov-3, 48 h

| Structure (SMILES) | Activity |
| --- | --- |
| COC(=O)[C@@H]1C/C(=C\NCc2ccc(Cl)cc2Cl)C(=O)N1C(=O)OC | Non-Toxic |
| CCCCCCN1C(=O)[C@@H]2CCC(=O)N2C1N(C)C (stereo not given in full) | Non-Toxic |
| O=C(NCc1ccc(Cl)cc1Cl)[C@@H]1CCC(=O)N1C(c1ccccc1)c1ccccc1 | Non-Toxic |
| O=C1CCCC(C(=O)NCc2ccc(Cl)cc2Cl)N1 (stereo not given) | Non-Toxic |

test system: M14; assay: Cytotoxicity against human M14 cells assessed as effect on cell growth at 10 uM incubated for 48 hrs by sulforhodamine B assay; assay type: cell-based; details: m14, 48 h

| Structure (SMILES) | Activity |
| --- | --- |
| COC(=O)[C@@H]1C/C(=C\NCc2ccc(Cl)cc2Cl)C(=O)N1C(=O)OC | Non-Toxic |
| CCCCCCN1C(=O)[C@@H]2CCC(=O)N2C1N(C)C (stereo not given in full) | Non-Toxic |
| O=C(NCc1ccc(Cl)cc1Cl)[C@@H]1CCC(=O)N1C(c1ccccc1)c1ccccc1 | Non-Toxic |
| O=C1CCCC(C(=O)NCc2ccc(Cl)cc2Cl)N1 (stereo not given) | Non-Toxic |

test system: SF-295; assay: Cytotoxicity against human SF295 cells assessed as effect on cell growth at 10 uM incubated for 48 hrs by sulforhodamine B assay; assay type: cell-based; details: sf-295, 48 h

| Structure (SMILES) | Activity |
| --- | --- |
| COC(=O)[C@@H]1C/C(=C\NCc2ccc(Cl)cc2Cl)C(=O)N1C(=O)OC | Non-Toxic |
| CCCCCCN1C(=O)[C@@H]2CCC(=O)N2C1N(C)C (stereo not given in full) | Non-Toxic |
| O=C(NCc1ccc(Cl)cc1Cl)[C@@H]1CCC(=O)N1C(c1ccccc1)c1ccccc1 | Non-Toxic |
| O=C1CCCC(C(=O)NCc2ccc(Cl)cc2Cl)N1 (stereo not given) | Non-Toxic |

test system: RPMI-8226; assay: Cytotoxicity against human RPMI8226 cells assessed as effect on cell growth at 10 uM incubated for 48 hrs by sulforhodamine B assay; assay type: cell-based; details: rpmi-8226, 48 h

| Structure (SMILES) | Activity |
| --- | --- |
| COC(=O)[C@@H]1C/C(=C\NCc2ccc(Cl)cc2Cl)C(=O)N1C(=O)OC | Non-Toxic |
| CCCCCCN1C(=O)[C@@H]2CCC(=O)N2C1N(C)C (stereo not given in full) | Non-Toxic |
| O=C(NCc1ccc(Cl)cc1Cl)[C@@H]1CCC(=O)N1C(c1ccccc1)c1ccccc1 | Non-Toxic |
| O=C1CCCC(C(=O)NCc2ccc(Cl)cc2Cl)N1 (stereo not given) | Non-Toxic |

test system: HL-60(TB); assay: Cytotoxicity against human HL-60(TB) cells assessed as effect on cell growth at 10 uM incubated for 48 hrs by sulforhodamine B assay; assay type: cell-based; details: not given

| Structure (SMILES) | Activity |
| --- | --- |
| COC(=O)[C@@H]1C/C(=C\NCc2ccc(Cl)cc2Cl)C(=O)N1C(=O)OC | Non-Toxic |
| CCCCCCN1C(=O)[C@@H]2CCC(=O)N2C1N(C)C (stereo not given in full) | Non-Toxic |
| O=C(NCc1ccc(Cl)cc1Cl)[C@@H]1CCC(=O)N1C(c1ccccc1)c1ccccc1 | Non-Toxic |
| O=C1CCCC(C(=O)NCc2ccc(Cl)cc2Cl)N1 (stereo not given) | Non-Toxic |

test system: A498; assay: Cytotoxicity against human A498 cells assessed as effect on cell growth at 10 uM incubated for 48 hrs by sulforhodamine B assay; assay type: cell-based; details: a498, 48 h

| Structure (SMILES) | Activity |
| --- | --- |
| COC(=O)[C@@H]1C/C(=C\NCc2ccc(Cl)cc2Cl)C(=O)N1C(=O)OC | Non-Toxic |
| CCCCCCN1C(=O)[C@@H]2CCC(=O)N2C1N(C)C (stereo not given in full) | Non-Toxic |
| O=C(NCc1ccc(Cl)cc1Cl)[C@@H]1CCC(=O)N1C(c1ccccc1)c1ccccc1 | Non-Toxic |
| O=C1CCCC(C(=O)NCc2ccc(Cl)cc2Cl)N1 (stereo not given) | Non-Toxic |

test system: NCI-H460; assay: Cytotoxicity against human NCI-H460 cells assessed as effect on cell growth at 10 uM incubated for 48 hrs by sulforhodamine B assay; assay type: cell-based; details: nci-h460, 48 h

| Structure (SMILES) | Activity |
| --- | --- |
| COC(=O)[C@@H]1C/C(=C\NCc2ccc(Cl)cc2Cl)C(=O)N1C(=O)OC | Non-Toxic |
| CCCCCCN1C(=O)[C@@H]2CCC(=O)N2C1N(C)C (stereo not given in full) | Non-Toxic |
| O=C(NCc1ccc(Cl)cc1Cl)[C@@H]1CCC(=O)N1C(c1ccccc1)c1ccccc1 | Non-Toxic |
| O=C1CCCC(C(=O)NCc2ccc(Cl)cc2Cl)N1 (stereo not given) | Non-Toxic |

test system: HCT-15; assay: Cytotoxicity against human HCT15 cells assessed as effect on cell growth at 10 uM incubated for 48 hrs by sulforhodamine B assay; assay type: cell-based; details: hct-15, 48 h

| Structure (SMILES) | Activity |
| --- | --- |
| COC(=O)[C@@H]1C/C(=C\NCc2ccc(Cl)cc2Cl)C(=O)N1C(=O)OC | Non-Toxic |
| CCCCCCN1C(=O)[C@@H]2CCC(=O)N2C1N(C)C (stereo not given in full) | Non-Toxic |
| O=C(NCc1ccc(Cl)cc1Cl)[C@@H]1CCC(=O)N1C(c1ccccc1)c1ccccc1 | Non-Toxic |
| O=C1CCCC(C(=O)NCc2ccc(Cl)cc2Cl)N1 (stereo not given) | Non-Toxic |

test system: KM12; assay: Cytotoxicity against human KM12 cells assessed as effect on cell growth at 10 uM incubated for 48 hrs by sulforhodamine B assay; assay type: cell-based; details: km12, 48 h

| Structure (SMILES) | Activity |
| --- | --- |
| COC(=O)[C@@H]1C/C(=C\NCc2ccc(Cl)cc2Cl)C(=O)N1C(=O)OC | Non-Toxic |
| CCCCCCN1C(=O)[C@@H]2CCC(=O)N2C1N(C)C (stereo not given in full) | Non-Toxic |
| O=C(NCc1ccc(Cl)cc1Cl)[C@@H]1CCC(=O)N1C(c1ccccc1)c1ccccc1 | Non-Toxic |
| O=C1CCCC(C(=O)NCc2ccc(Cl)cc2Cl)N1 (stereo not given) | Non-Toxic |

test system: MOLT-4; assay: Cytotoxicity against human MOLT4 cells assessed as effect on cell growth at 10 uM incubated for 48 hrs by sulforhodamine B assay; assay type: cell-based; details: molt-4, 48 h

| Structure (SMILES) | Activity |
| --- | --- |
| COC(=O)[C@@H]1C/C(=C\NCc2ccc(Cl)cc2Cl)C(=O)N1C(=O)OC | Non-Toxic |
| CCCCCCN1C(=O)[C@@H]2CCC(=O)N2C1N(C)C (stereo not given in full) | Non-Toxic |
| O=C(NCc1ccc(Cl)cc1Cl)[C@@H]1CCC(=O)N1C(c1ccccc1)c1ccccc1 | Non-Toxic |
| O=C1CCCC(C(=O)NCc2ccc(Cl)cc2Cl)N1 (stereo not given) | Non-Toxic |

test system: SF-539; assay: Cytotoxicity against human SF539 cells assessed as effect on cell growth at 10 uM incubated for 48 hrs by sulforhodamine B assay; assay type: cell-based; details: sf-539, 48 h

| Structure (SMILES) | Activity |
| --- | --- |
| COC(=O)[C@@H]1C/C(=C\NCc2ccc(Cl)cc2Cl)C(=O)N1C(=O)OC | Non-Toxic |
| CCCCCCN1C(=O)[C@@H]2CCC(=O)N2C1N(C)C (stereo not given in full) | Non-Toxic |
| O=C(NCc1ccc(Cl)cc1Cl)[C@@H]1CCC(=O)N1C(c1ccccc1)c1ccccc1 | Non-Toxic |
| O=C1CCCC(C(=O)NCc2ccc(Cl)cc2Cl)N1 (stereo not given) | Non-Toxic |
